Results on one compound are retold here after patent US10016439B2, “Fused imidazole compounds” (ONO PHARMACEUTICAL CO., LTD., priority 2014, dated 2018).

One experiment addresses GABAA α1/β3/γ2 (Homo sapiens (Human), UniProt P14867+P18507). Put plainly: Functional assay (PatchXpress automated patch-clamp), α1 subtype. In kind it is cell-based. Conditions: % change of GABA EC20 response; compound 1 μM; HEK293 cells. From the text: (§1) GABAA α5/β3/γ2 HEK293 cell line was used throughout the functional assay in PatchXpress (Molecular Devices), the automated patch-clamp system. Cells stably expressing the appropriate GABAA subtype (α5/β3/γ2, α1/β3/γ2, α2/β3/γ2 or α3/β3/γ2) were dissociated from poly-D-lysine treated tissue culture flasks using a mixture of one part TrypLE (Invitrogen, cat #12604): one part Dulbecco's Phosphate Buffered Saline (Invitrogen, cat #14190). The dissociated cells were re-suspended in growth media (D-MEM/F-12 media (Invitrogen, cat #11320) supplemented with 10% (v/v) Foetal Bovine Serum (Invitrogen, cat #10082) and 1% (v/v) non-essential amino acids (Invitrogen, cat #11140)) and allowed to recover for one hour at 37° C. in a humidified incubator with 5% CO2. At the end of the recovery period cells were centrifuged at 1,000 rpm for two minutes and the resulting pellet re-suspended in external solution (in mM; 137 NaCl, 4 KCl, 10 HEPES, 1.8 CaCl2, 1 MgCl2, 10 glucose, pH set to 7.35 with NaOH). Cells were counted and diluted to 2.5×10^6/ml in external solution. The patch-clamp assay protocol involved determination of current amplitude with control applications of GABA EC20 containing concentration-matched DMSO (0.3% v/v), then pre-incubation of the test compound for one minute prior to the addition of the same compound diluted with the GABA EC20. Compound and/or GABA was applied for five seconds, with two minute wash periods between applications. No wash period was present at the end of the compound pre-application stage. The internal solution comprised (in mM) 90 KCl, 50 KF, 11 EGTA, 10 HEPES, 1 MgCl2, 2 Mg-ATP, the pH was set to 7.35 with KOH and the holding potential was −60 mV. Compounds were assayed at a concentration of 1 μM.
(In general: Patch clamp records ionic current or voltage across a cell membrane.)

For experiment [1], the target named is T1, GABAA α5/β3/γ2 (Homo sapiens (Human), UniProt P18507+P31644). Put plainly: Functional assay (PatchXpress automated patch-clamp), α5 subtype. In kind it is cell-based. As to conditions: % change of GABA EC20 response; compound 1 μM; HEK293 cells.
Text: as §1

Experiment [2] has as its target T1, GABAA α5/β3/γ2. The experiment can be described thus: Binding assay (Scintillation Proximity Assay, [3H]-Ro15-1788). As to conditions: membranes of HEK293 cells expressing GABAA α5/β3/γ2. The protocol:
The GABAAα5/β3/γ2 protein used for the Scintillation Proximity Assay was derived from membranes produced from HEK293 GABAA α5/β3/γ2 expressing HEK293 cell line. HEK293 GABAA α5/β3/γ2 expressing HEK293 cell line was cultured, then harvested and centrifuged the cells. Membranes were produced by homogenization of the cell pellet with a tissue homogenizer. The resulting homogenate was centrifuged at 48,000 g for 30 minutes, re-suspended and washed twice with 10 mM potassium phosphate buffer, pH 7.4. Final resuspension of membranes took place in buffer containing 10 mM potassium phosphate and 100 mM KCl.
For assay, test compound (50×) was added 0.5 μl per well to a white-walled clear-bottomed 384-well plate.
Full signal controls were prepared by the addition of 0.5 μl of DMSO to the appropriate wells. Mixture of 10 μl of protein and 10 μl of PVT-WGA beads (0.2 mg/well) were added to the plate. Both protein and bead were diluted to the desired concentration with 10 mM potassium phosphate, pH 7.4, containing 100 mM KCl. The plate was pre-incubated for 30 minutes at room temperature with shaking before initiation of the reaction by the addition of radioligand. 5 μl of [^3H]-Ro15-1788 was added at a concentration of 30 nM (5×) and the plates sealed. The reaction mix was incubated at room temperature overnight with gentle agitation on a plate shaker. The final DMSO concentration for all phases of the screening was 2% (v/v). At the end of the overnight incubation, the plates were centrifuged for two minutes at 1,000 rpm prior to reading on a Perkin Elmer Microbeta.
Concentration-response testing was performed in duplicate and the percent effect calculated for each replicate data point. The raw data was entered in Activity Base and the curves were fitted to the mean data using Excel and XL Fit, and shown as Ki.
On the technique in general: SPA uses beads or plates that emit light when radiolabelled molecules are held near them.

The test system of a further experiment is Lister Hooded rat. The experiment can be described thus: Rat Novel Object Recognition test. As to conditions: 20 mg/kg p.o., 30 min prior to T1 and T2; 24 hr delay. In kind it is in vivo. The source says:
NOR (Novel Object Recognition test) is a two-trial spontaneous test of visual recognition memory that relies on the animal's natural tendency to explore novelty (Behav Brain Res, 1998, 31(1): pp. 47-59). Variation of the inter-trial interval (ITI) between acquisition (T1) and retention trials (T2) may be used to investigate either deficits or improvements in memory. A temporal performance deficit can be induced by increasing the ITI (approximately 24 hr), such that exploration of both objects in T2 is similar, enabling the pro-cognitive abilities of novel compounds to be evaluated.
Male, Lister Hooded rat (228-273 g at start of study; Harlan UK) was used.
Habituation to the grey, matt perspex NOR box twice a day, on two consecutive days, prior to testing. Each habituation session, consisted of a 3 min exposure to the empty test box (46×30×45 cm), followed by 1 min in the side annex (13×30×45 cm), and then a further 3 min in the test area. […]
Experimental protocol tests for improvement in attention/recognition memory via reversal of a 24 h delay-induced deficit in NOR. […] All performance measures were determined for each individual animal before statistical handling.
The T1 score, d1 and d2 index were analysed using 2-way ANOVA (treatment×object) followed by planned comparisons post-hoc LSD using single measure parametric analysis, based on least square (predicted) means in InVivoStat, UK.

T1 sequence (P31644 32-462): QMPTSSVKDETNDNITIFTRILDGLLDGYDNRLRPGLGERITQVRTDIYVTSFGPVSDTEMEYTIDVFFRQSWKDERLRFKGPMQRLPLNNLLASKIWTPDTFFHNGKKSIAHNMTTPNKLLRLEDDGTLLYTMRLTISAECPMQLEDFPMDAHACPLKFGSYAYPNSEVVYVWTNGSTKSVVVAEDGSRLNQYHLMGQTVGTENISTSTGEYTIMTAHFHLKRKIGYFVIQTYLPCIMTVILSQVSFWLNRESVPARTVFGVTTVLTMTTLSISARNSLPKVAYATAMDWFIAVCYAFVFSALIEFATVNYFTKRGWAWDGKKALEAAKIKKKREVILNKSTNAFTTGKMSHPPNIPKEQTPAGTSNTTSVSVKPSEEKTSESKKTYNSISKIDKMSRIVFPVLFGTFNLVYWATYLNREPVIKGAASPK
T1 sequence (P28472 26-473 partner): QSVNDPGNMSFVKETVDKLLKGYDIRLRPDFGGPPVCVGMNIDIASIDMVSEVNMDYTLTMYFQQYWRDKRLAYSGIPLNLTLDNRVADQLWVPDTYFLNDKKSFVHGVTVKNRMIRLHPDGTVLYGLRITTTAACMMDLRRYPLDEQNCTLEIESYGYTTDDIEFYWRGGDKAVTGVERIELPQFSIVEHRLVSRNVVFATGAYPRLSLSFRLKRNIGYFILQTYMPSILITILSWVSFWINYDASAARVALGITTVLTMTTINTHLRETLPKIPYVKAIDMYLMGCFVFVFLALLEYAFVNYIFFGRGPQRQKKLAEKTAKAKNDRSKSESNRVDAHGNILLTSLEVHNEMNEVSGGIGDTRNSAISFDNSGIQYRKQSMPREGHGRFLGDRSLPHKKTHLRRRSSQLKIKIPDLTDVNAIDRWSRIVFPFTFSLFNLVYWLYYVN
T1 sequence (P18507 40-475): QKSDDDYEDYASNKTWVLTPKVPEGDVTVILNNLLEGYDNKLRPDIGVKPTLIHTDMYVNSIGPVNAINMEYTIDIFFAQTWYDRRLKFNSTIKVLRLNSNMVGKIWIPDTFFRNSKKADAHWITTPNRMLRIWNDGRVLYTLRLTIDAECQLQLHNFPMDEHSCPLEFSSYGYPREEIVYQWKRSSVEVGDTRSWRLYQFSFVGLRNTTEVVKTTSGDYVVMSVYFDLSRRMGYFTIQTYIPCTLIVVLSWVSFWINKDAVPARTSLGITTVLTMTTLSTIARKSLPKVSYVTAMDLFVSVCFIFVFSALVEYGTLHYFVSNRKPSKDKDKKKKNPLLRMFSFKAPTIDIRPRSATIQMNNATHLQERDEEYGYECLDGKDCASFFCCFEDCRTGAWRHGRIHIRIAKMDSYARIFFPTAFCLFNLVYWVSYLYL
Chain of GABAA α1/β3/γ2 (P14867 28-456): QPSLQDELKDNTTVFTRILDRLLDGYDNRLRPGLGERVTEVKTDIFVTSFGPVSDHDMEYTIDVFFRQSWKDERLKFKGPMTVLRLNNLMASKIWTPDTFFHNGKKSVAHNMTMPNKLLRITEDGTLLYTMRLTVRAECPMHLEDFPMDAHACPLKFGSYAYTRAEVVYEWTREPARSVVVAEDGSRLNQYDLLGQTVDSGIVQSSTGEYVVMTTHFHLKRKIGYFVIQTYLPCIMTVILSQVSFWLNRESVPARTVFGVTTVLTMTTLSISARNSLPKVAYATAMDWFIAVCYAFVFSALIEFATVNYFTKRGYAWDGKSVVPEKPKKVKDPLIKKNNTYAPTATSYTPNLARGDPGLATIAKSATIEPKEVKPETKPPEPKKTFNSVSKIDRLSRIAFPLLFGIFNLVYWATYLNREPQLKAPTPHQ
Chain of GABAA α1/β3/γ2 (P28472 26-473 partner): as the sequence (P28472 26-473 partner) above
Chain of GABAA α1/β3/γ2 (P18507 40-475): as the sequence (P18507 40-475) above

For orientation: inhibition means the relative decrease from the control value, in per cent. Read a low inhibition as a weak effect. By Ki is commonly meant the equilibrium dissociation constant of an inhibitor or competing ligand from its target. Lower therefore signals higher affinity. `Cc1cc(Nc2cc3c(cc2Cl)N(C)C(=O)CO3)nc2c1ncn2CC1CC1` [Example 160, 6-Chloro-7-((3-(cyclopropylmethyl)-7-methyl-3H-imidazo[4,5-b]pyridin-5-yl)amino)-4-methyl-2H-benzo[b][1,4]oxazin-3(4H)-one]: the inhibition at 1 µM at GABAA α1/β3/γ2 was determined as 9.8%; on GABAA α5/β3/γ2 [1], 42.5%. On GABAA α5/β3/γ2 [2], the Ki amounted to 0.9 nM. Further, the “d2 index score (performance in NOR)” value with Lister Hooded rat is “significantly improved performance”.
